As a reminder, the LD50 is the dose at which mortality reaches 50%.

The test system of data set [1] is mouse. Kind of data set: Activity test (spontaneous motility, photoelectric cell cage). The note with it: read-out: Activity, median effective dose. It counts as in vivo. The method, then:
(Boissier J. R. and Simon P. "Archives Internationales de Pharmacodynamie",1965, 158, 212).
A mouse was placed in a Plexiglass cage crossed by a plurality of beams of light acting on photoelectric cells. When the mouse moved and thereby interrupted one of the beams, this caused an electrical pulse which was registered on a counter. The measurements were carried out on batches of six treated animals and six control animals for a period of 20 minutes.
(§1) The results obtained from the tests described above are summarized in Table II; the figures given in this Table show the value of the median effective dose for each test. The method of administration is indicated by "I.V." for intravenous administration, "I.P." for intraperitoneal administration and "P.O." for oral administration.

In data set [2] the test system is central nervous system. Kind of data set: Traction test. The format is in vivo. To be noted: mouse, read-out: Traction, median effective dose.
Source text: (Courvoisier S., Ducrot R. and Julou L. "Psychotropic Drugs", Elsevier, 1957, p.373)
In this test, a mouse was hung by its front legs on a stretched wire. The animal will normally recover by itself, by gripping with its rear legs within 5 seconds.
as §1

Data set [3] deals with central nervous system. Kind of data set: Balancing test (rotating shaft). To be noted: mouse, read-out: Balancing, median effective dose. The format is in vivo. How it is done: (Boissier J. R., Dumont C. and Ratouis R. "Therapie", 1960, 15, 1170)
In this test, mice were placed for 1 minute on a horizontal wooden shaft which rotated steadily at 12 r.p.m. The mice will normally counteract this movement using positional and balancing reflexes; if, however, the central nervous system is affected, these reflexes are disturbed and a certain number of animals fall off.
as §1

In data set [4] the test system is mouse. Briefly: Exploration test (plank with holes, anxiolytic activity). It counts as in vivo. The note with it: read-out: Exploration, median effective dose. How it is done: (Boissier J. R. and Simon P. "Archives Internationales de Pharmacodynamie",1964, 147, 372).
This test, using a plank with holes in it, makes it possible to measure objectively the anxiolytic activity of a compound by noting the decrease in the number of holes explored within a given time by a treated mouse in comparison with a control mouse. The animals are used in batches of 10 and are allowed 5 minutes for exploration.
as §1

The test system of data set [5] is mouse. Kind of data set: Reserpine test (reserpine-induced depression). The format is in vivo. To be noted: reserpine 5 mg/kg subcutaneously, read-out: Reserpine, median effective dose. How it is done: (Rubin B., Malone M. H., Waugh M. H. and Burke J. C., "Journal of Pharmacology and Experimental Therapeutics", 1957, 120, 125)
Reserpine, administered subcutaneously to a mouse in a dose of 5 mg/kg body weight, causes symptoms of severe depression, with absolute fixity, ptosis of the eyelids, hypothermia and catatonia; the simultaneous administration of a substance having anti-depressive properties leads to the progressive total or partial disappearance of this depressed state.
as §1

In data set [6] the test system is dorsal hippocampus. Kind of data set: Electroencephalographic study, electrical stimulation of the dorsal hippocampus. It counts as in vivo, rabbit. To be noted: conscious rabbits, intravenous; 6 volts, 30 cycles per second, 5 seconds. The source says:
Electroencephalographic study
(Schmitt H. and Schmitt H., "Therapie", 1966, 3, 675-684)
Electrical stimulation of the dorsal hippocampus (6 volts; 30 cycles per second; 5 seconds, extent: 1.5 milliseconds) causes electrical discharges in the rabbit which continue for several seconds after cessation of electrical stimulation. These discharges last from 15 to 19 seconds in a normal animal. When the rabbit is under the influence of an antidepressant drug, these discharges last much longer. The experiment was carried out on batches of six conscious rabbits implanted by the technique of Monnier M. and Gangloff H. ("Atlas of Stereotaxic brain research on the conscious rabbit", Elsevier 1961), the products being administered intraveneously. The discharges were increased by 60% when the rabbits were treated with compound 933 CB and by 20 % when the rabbits were treated with compound 994 CB.

Data set [7] deals with isolated rat duodenum. Briefly: Antispasmodic activity, barium chloride-induced spasms of isolated rat duodenum. To be noted: tyrode bath 37° C, barium chloride 100 μg/liter, compound added 3 minutes before, read-out: 50% effective concentration. The method, then: The antispasmodic activity of the compounds of the invention was also studied on the isolated rat duodenum, kept alive in an aerated tyrode bath at 37° C. Spasms were induced by the administration of barium chloride in an amount of 100 μg/liter. The compounds of the invention were added, at various concentrations, to the tyrode bath 3 minutes before the addition of the spasmogenic agent and the concentration determined of each which reduced by 50% the extent of the contraction caused by this agent.

Data set [8] can be described thus: Toxicity, LD50 in mice. The note with it: mouse, in vivo. The source says:
The toxicity of the compounds of the invention is generally low, as may be seen from Table IV, which gives the LD50 in mg/kg in mice for some of the compounds of the invention.

In data set [9] the test system is severely depressed hospital patients. Briefly: Clinical evaluation in severely depressed hospital patients. The format is in vivo, human. The method, then: A clinical evaluation of 933 CB was carried out using a sample of […] severely depressed hospital patients who were considering suicide or in some cases had attempted it. The sample contained 13 cases of nervous depression, 10 cases of reactional depression, seven cases of psychotic depression and three cases of severe melancholia. A clear favourable action on the depressive […] occurred in 21 of the patients. Several cases where a favourable response was noted had previously been treated with tricyclic antidepressants without success. […] The daily dose of the compound administered to each patient varied from 20 to 200 mg, the most favourable results being obtained with a dose of 40 to 60 mg.

Data set [10] deals with adynamic and depressive states. Kind of data set: Clinical use in adynamic and depressive states. The format is in vivo. To be noted: 2 to 10 compressed tablets of 100 mg daily or 1 to 5 injectible ampoules of 100 mg. The method, then:
The compounds of the invention have been successfully used clinically to treat adynamic and depressive states, such as melancholia, reactive depressions and manic-depressive psychosis.
The compounds of the present invention are preferably formulated for oral administration or for injection. The compounds of the invention are also suitable for rectal administration. For oral administration, compressed tablets, each containing from 20 to 500 mg of active ingredient are recommended and for injection, ampoules each containing from 10 to 500 mg of active ingredient are recommended.

The mark [11] stands for this setting: po, orally, read-out: LD50 orally.
The mark [12] stands for this setting: 30 severely depressed hospital patients, 20 to 200 mg daily.

≈ marks a conversion by molar mass, not a printed value. Like-named read-outs stand apart in the source and are kept apart here.

With `CCN(CC)CC=Cc1ccc(C2CCCCC2)c(Cl)c1` [933 CB, 3-chloro-4-cyclohexyl-1-(3-diethylamino-propen-1-yl)-benzene], the ED50 turned out to be 25 mg/kg in [1] (ip, I.P.); 100 mg/kg in data set [1] (po, P.O.); 50 mg/kg in data set [2] (ip, I.P.); 100 mg/kg in data set [2] (po, P.O.); 30 mg/kg in data set [3] (ip, I.P.); 50 mg/kg in data set [3] (po, P.O.). The ED50 in [4] (ip, I.P.) came to 25 mg/kg; in data set [4] (po, P.O.), 25 mg/kg; in data set [5] (ip, I.P.), 75 mg/kg; in data set [5] (po, P.O.) it was 100 mg/kg. The “Increase of hippocampal discharges” value in [6] worked out at 60%. In addition, the EC50 in data set [7] was in the range of 0.6 to 1 ng/mL (≈ 1.96 to 3.27 nM). Also, the LD50 in data set [8] (ip, I.P., read-out: LD50 I.P.) was 125 mg/kg; in data set [8] (setting [11]), more than 1080 mg/kg. Moreover, the “patients with a clear favourable action on the depressive thymine” value in [9] (setting [12]) came to 21 patients. Besides, in data set [9] (setting [12]), the “patients with improvement noted in less than a week” value is given as 13 patients. Further, in data set [9] (depressed patients), the “rapidity of action (in words)” value is reported as “The action was rapid”. In addition, the “results on administration (in words)” value in [10] is “Good results were obtained”.
For the compound `CCN(CC)CCCc1ccc(C2CCCCC2)c(Cl)c1` [934 CB, 3-Chloro-4-cyclohexyl-1-(3-diethylamino-propyl)-benzene], the ED50 in data set [1] (ip, I.P.) was 30 mg/kg; in data set [3] (ip, I.P.), 12.5 mg/kg; in data set [4] (ip, I.P.), 20 mg/kg; in data set [5] (ip, I.P.), 50 mg/kg. For the same compound, the EC50 in [7] worked out at 0.6 ng/mL (≈ 1.95 nM). The LD50 was 125 to 250 mg/kg in data set [8] (ip, I.P., read-out: LD50 I.P.) and more than 750 mg/kg in data set [8] (setting [11]).
As to `CCN(CC)CC=Cc1ccc(-c2ccccc2)cc1` [994 CB, 4-(3-diethylamino-propen-1-yl)-biphenyl], the ED50 in [1] (ip, I.P.) turned out to be 100 mg/kg; in [2] (ip, I.P.), 100 mg/kg; in [3] (ip, I.P.), 50 mg/kg; in data set [4] (ip, I.P.) it was 50 mg/kg; in data set [4] (po, P.O.) it was 50 mg/kg; in [5] (ip, I.P.) it was 50 mg/kg. Also, the ED50 in data set [5] (po, P.O.) worked out at 50 mg/kg. Besides, in data set [6], the “Increase of hippocampal discharges” value is 20%. Further, in data set [7], the EC50 stood at 3 ng/mL (≈ 11.3 nM).
Take `CCN(CC)CCCc1ccc(-c2ccccc2)cc1` [31001 CB, 4-(3-diethylamino-propyl)-biphenyl]: the ED50 came out at 50 mg/kg in [1] (ip, I.P.); 100 mg/kg in data set [2] (ip, I.P.); 100 mg/kg in [3] (ip, I.P.). Also, the EC50 in data set [7] turned out to be 1 ng/mL (≈ 3.74 nM).
For `CN(C)CC=Cc1ccc(C2CCCCC2)c(Cl)c1` [31004 CB, 3-chloro-4-cyclohexyl-1-(3-dimethylamino-propen-1-yl)-benzene], the ED50 in [1] (ip, I.P.) was 12.5 mg/kg; in data set [2] (ip, I.P.) it was more than 100 mg/kg; in data set [3] (ip, I.P.) it was 100 mg/kg; in data set [4] (ip, I.P.), 60 mg/kg. Also, the EC50 in [7] fell in the range of 1 to 3 ng/mL (≈ 3.6 to 10.8 nM). Moreover, the LD50 in [8] (ip, I.P., read-out: LD50 I.P.) was 125 mg/kg; in data set [8] (setting [11]), more than 750 mg/kg.
For the compound `CN(C)CCCc1ccc(C2CCCCC2)c(Cl)c1` [31012 CB, 3-Chloro-4-cyclohexyl-1-(3-dimethylamino-propyl)-benzene], the ED50 in data set [1] (ip, I.P.) was determined as 50 mg/kg; in data set [2] (ip, I.P.), 100 mg/kg; in data set [3] (ip, I.P.) it was 100 mg/kg; in [4] (ip, I.P.) it was 50 mg/kg. For the same compound, the median lethal dose (LD50) in [8] (ip, I.P., read-out: LD50 I.P.) was 250 to 300 mg/kg; in data set [8] (setting [11]), more than 750 mg/kg.
Regarding `Clc1cc(C=CCN2CCOCC2)ccc1C1CCCCC1` [31013 CB, 3-chloro-4-cyclohexyl-1-(3-morpholino-propen-1-yl)-benzene], the ED50 came out at 50 mg/kg in data set [1] (ip, I.P.) and 50 mg/kg in [4] (ip, I.P.). Also, the LD50 in data set [8] (ip, I.P., read-out: LD50 I.P.) is 500 mg/kg; in [8] (setting [11]) it was more than 750 mg/kg.
Turning to `Clc1cc(C=CCN2CCCC2)ccc1C1CCCCC1` [31015 CB, 3-Chloro-4-cyclohexyl-1-(3-pyrrolidino-propen-1-yl)-benzene], the ED50 in data set [1] (ip, I.P.) is 20 mg/kg; in [2] (ip, I.P.), 50 mg/kg; in [3] (ip, I.P.), 50 mg/kg; in data set [4] (ip, I.P.), 25 mg/kg; in data set [5] (ip, I.P.) it was 50 mg/kg. In data set [7], the EC50 fell in the range of 1 to 3 ng/mL (≈ 3.29 to 9.87 nM). Besides, the 50% lethal dose (LD50) was 62.5 mg/kg in data set [8] (ip, I.P., read-out: LD50 I.P.) and more than 750 mg/kg in [8] (setting [11]).
As to `Clc1cc(CCCN2CCCC2)ccc1C1CCCCC1` [31016 CB, 3-Chloro-4-cyclohexyl-1-(3-pyrrolidino-propyl)-benzene], the ED50 in data set [1] (ip, I.P.) was 12.5 mg/kg; in data set [4] (ip, I.P.), 20 mg/kg; in [5] (ip, I.P.), 50 mg/kg. Moreover, the LD50 in data set [8] (ip, I.P., read-out: LD50 I.P.) was 50 to 100 mg/kg; in [8] (setting [11]), more than 750 mg/kg.
Consider `CCN(CC)CC=Cc1ccc(C2CCCCC2)cc1` [31023 CB, 4-cyclohexyl-1-(3-diethylamino-propen-1-yl)-benzene], for which the ED50 in data set [1] (ip, I.P.) worked out at 25 mg/kg; in data set [2] (ip, I.P.), 25 mg/kg; in data set [3] (ip, I.P.) it was 30 mg/kg.
Turning to `CCN(CC)CC=Cc1ccc(C2CCCCC2)c(F)c1` [Compound 31030, 3-fluoro-4-cyclohexyl-1-(3-diethylamino-propen-1-yl)-benzene], the ED50 in data set [1] (ip, I.P.) is 100 mg/kg; in data set [2] (ip, I.P.), 50 mg/kg; in [3] (ip, I.P.), 25 mg/kg; in data set [4] (ip, I.P.), not below 50 mg/kg.
